# Results from patent US11326131B2, “Cleaning composition” (AMITY LIMITED, priority 2008, dated 2022).
# System: polio virus
# Format: cell-based
# Conditions: tested on its own
smiles,measurement,value
"CCCCCCCCCCCCN(CCCN)CCCN [dodecyl dipropylene triamine, Dodecyl dipropylene triamine]",effect against the polio virus,no effect
